The target in data set [1] is ACE C-domain (Homo sapiens, UniProt P12821). The note with it: cited from earlier work.
The subject of data set [2] is 10% human plasma supplemented with rhNEP (ACE and NEP activity). Description: Metabolism of a bradykinin 1-9 spike in human plasma (LC-MS/MS). The format is biochemical. The note with it: for initial bradykinin 1-9 spike remaining/recovered following the incubation period: 50 ng/ml BK 1-9 spike, 10% human plasma + rhNEP 200 pg/ml, 37° C.
Description: All samples were spiked with bradykinin 1-9 (BK1-9) at a concentration of 50 ng/ml followed by an incubation period at 37° C. Recombinant human neutral endopeptidase (rhNEP) was added to all samples at a concentration of 200 pg/ml.
The concentrations of BK 1-9 are relative to the control that was plasma spiked with BK 1-9 following the incubation period (100% spike control).
Effects on Bradykinin Peptides. The metabolism of a spike of bradykinin 1-9 (50 ng/ml) in 10% human plasma supplemented with 200 pg/ml rhNEP (R&D) in vitro, followed by LC-MS/MS-based quantification of the bradykinin metabolites bradykinin 1-9, 1-8, 1-7, 1-5, and 2-9 was examined. Briefly, samples where stabilized and spiked with 200 pg/ml of stable-isotope-labelled internal standards for bradykinin 1-9, 1-8, 1-7, 1-5, and 2-9. Following C18-based solid-phase-extraction, samples were subjected to LC-MS/MS analysis using a reversed-phase analytical column (Acquity UPLC® C18, Waters) operating in line with a XEVO TQ-S triple quadrupole mass spectrometer (Waters) in MRM mode.
Data set [3] relates to hypertensive animal (the high-renin mouse model). The note with it: in vivo; cited from earlier work.
The conditions of data set [4]: cited from earlier work; for angioedema frequency: 5,770 patients with heart failure.
The conditions of data set [5]: cited from earlier work.
For data set [6] the following is noted: patients with hypertension, cited from earlier work.
The conditions of data set [7]: 573 patients with heart failure; cited from earlier work.
In data set [8] the test system is aminopeptidase P. The note with it: cited from earlier work.
Data set [9] has as its system human plasma supplemented with recombinant human NEP (ACE and NEP activity). Description: RAS equilibrium analysis of angiotensin peptides in human plasma ex vivo (LC-MS/MS). The note with it: human plasma + rhNEP 200 pg/ml.
Description: Recombinant human neutral endopeptidase (rhNEP) was added to all samples at a concentration of 200 pg/ml.
Equilibrium angiotensin peptide levels were measured in plasma samples after incubating Li-Heparin samples supplemented with recombinant human NEP (rhNEP) (R&D, 200 pg/ml) at controlled pH (7.4) for a period of 30 min at 37° C. in the presence and absence of indicated compounds and enzymes. Following equilibration, samples were stabilized and spiked with stable-isotope-labelled internal standards for each angiotensin metabolite, Ang I (Ang 1-10), Ang II (Ang 1-8), Ang 1-7, Ang 1-5, Ang 2-8, Ang 3-8, Ang 2-10, Ang 2-7, Ang 1-9, and Ang 3-7, at a concentration of 200 pg/ml. Following C18-based solid-phase-extraction, samples were subjected to LC-MS/MS analysis using a reversed-phase analytical column (Acquity UPLC® C18, Waters) operating in line with a XEVO TQ-S triple quadrupole mass spectrometer (Waters) in MRM mode.

Results on 5 compounds are retold here after patent US11129805B2, “Dual ACE C-domain/NEP inhibitors” (ANGIODESIGN (UK) LIMITED, priority 2016, dated 2021).

Where two headings read alike, the source gives them in different places.

Sequence of ACE C-domain (P12821 643-1222 limits assumed): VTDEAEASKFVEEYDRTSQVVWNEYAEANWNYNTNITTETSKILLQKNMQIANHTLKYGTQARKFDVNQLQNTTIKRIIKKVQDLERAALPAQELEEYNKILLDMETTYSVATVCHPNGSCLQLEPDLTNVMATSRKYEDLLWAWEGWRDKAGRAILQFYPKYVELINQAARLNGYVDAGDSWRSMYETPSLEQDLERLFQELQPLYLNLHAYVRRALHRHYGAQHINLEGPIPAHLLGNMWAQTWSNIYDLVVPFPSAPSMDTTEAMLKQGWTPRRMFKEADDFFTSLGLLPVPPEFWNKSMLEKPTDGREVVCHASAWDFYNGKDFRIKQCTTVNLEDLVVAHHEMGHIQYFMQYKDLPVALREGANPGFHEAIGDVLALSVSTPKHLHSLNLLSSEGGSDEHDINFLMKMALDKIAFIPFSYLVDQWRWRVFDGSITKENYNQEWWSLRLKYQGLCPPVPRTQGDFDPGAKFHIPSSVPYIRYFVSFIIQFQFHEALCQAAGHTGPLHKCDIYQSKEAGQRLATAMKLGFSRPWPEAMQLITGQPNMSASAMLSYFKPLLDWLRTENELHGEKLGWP

As to `O=C(N[C@@H](Cc1ccccc1)P(=O)(O)C1CCCC1C(=O)N[C@@H](Cc1c[nH]c2ccccc12)C(=O)O)OCc1ccccc1` (some centres unmarked) [RXP A380], the C-domain selectivity in [1] was ~3,000 fold.

As to `NCCCC[C@H](N[C@@H](CCc1ccccc1)C(=O)O)C(=O)N1CCC[C@H]1C(=O)O` [lisinopril], the “initial bradykinin 1-9 spike remaining/recovered following the incubation period” value in data set [2] was 57-70%. In [3], the “plasma BK levels” value was “substantial increases in plasma BK levels”.

For `CCOC(=O)[C@H](CCc1ccccc1)N[C@@H](C)C(=O)N1CCC[C@H]1C(=O)O` [enalapril], the angioedema frequency in [4] is given as 0.5%.

Take `O=C(N[C@H]1CCS[C@H]2CCC[C@@H](C(=O)O)N2C1=O)[C@@H](S)Cc1ccccc1` [omapatrilat]: the “initial bradykinin 1-9 spike remaining/recovered following the incubation period” value in [2] is recorded as 74-85%. The metabolism of bradykinin entry in [2] (versus solvent control plasma) is given as “decreased metabolism of bradykinin”. The incidence of angioedema in [5] (25,302 hypertensive subjects) is 2.17%; in data set [5] (African American patients), 5.53%. The blood pressure reduction result in data set [5] (comparison with enalapril) is listed as “superior to enalapril in reducing blood pressure”. Further, in data set [6] (versus lisinopril), the “reduction in arterial pressure” value is listed as “greater reductions in arterial pressure”. Moreover, the “excretion of ANP” value in data set [6] is “increased the excretion of ANP”. For the same compound, the benefit versus lisinopril result in [7] was “trend toward greater benefit”. In addition, the “inhibition of aminopeptidase P” value in data set [8] is “inhibits”. Also, in data set [4], the angioedema frequency is on record as 0.8%. Besides, the “primary endpoint (all-cause mortality or hospitalization for heart failure)” value in [4] (comparison with enalapril) is reported as “failed to show superiority”. Further, the “inhibition of equilibrium Ang 1-8 levels (Ang II)” value in data set [9] (pH 7.4, 30 min at 37° C.) is given as 93.1%. Also, in data set [9] (sentence follows the rhACE2 discussion), the “levels of Ang 1-7” value was “undetectable”.

`NCCCC[C@H](N[C@@H](CCc1ccccc1)C(=O)O)C(=O)N[C@@H](Cc1c[nH]c2ccccc12)C(=O)O` [Lis-Trp]: in data set [3], the “Ang II formation” value is given as “suppression of Ang Il formation”, the blood pressure result is listed as “reduction in blood pressure equivalent to that achieved with the conventional ACE inhibitor lisinopril” and the “plasma BK levels” value is “leaving BK levels unchanged”.
